Measured values as given in publication PMC6356680, “Clerodane Diterpenes from the Marine Sponge Raspailia bouryesnaultae Collected in South Brazil” (Marine Drugs, 2019).
Read-outs that look alike come from different tables or passages of the source.

Tests used:
[1] = system: HSV-1 (29R strain); experiment: Viral plaque number reduction assay, HSV-1 29R strain; type: cell-based, Herpes Simplex Virus type 1; settings: for inhibition at 100 µg/mL: tested concentration 100 µg/mL
Description: (§1) Firstly, the cytotoxicity of compounds 1–6 was determined by SRB assay as described above. HSV-1 (KOS and 29R strains, which are sensitive and resistant to acyclovir, respectively, Faculty of Pharmacy, University of Rennes I, Rennes, France) were propagated in the permissive Vero cells. Viral stocks were titrated as based on plaque-forming units (PFU), counted by plaque assay as previously described, and stored at −80 °C until used. To perform the anti-HSV-1 screening, the viral plaque number reduction assay was used as described previously by Boff et al.. Briefly, confluent Vero cell monolayers (2.5 × 10^5 cells per well) were infected with approximately 100 PFU of each virus strain for 1 h at 37 °C. Treatments were performed by adding non-cytotoxic concentrations of the compounds after viral infection (post-infection treatment). Cells were then washed with phosphate-buffered saline (PBS) and overlaid with MEM containing 1.5% carboxymethylcellulose (CMC; Sigma-Aldrich) in the presence or absence of different concentrations of the compounds and incubated for 48 h. Cells were fixed and stained with naphthol blue-black (Sigma-Aldrich), and viral plaques were counted by using a stereomicroscope. The results were presented as percentages of viral inhibition or by IC50 values, which are defined as the concentration of each sample that inhibited viral plaque formation by 50% (IC50) when compared to untreated controls. The ratio between CC50 and IC50 values was calculated to obtain the selectivity index (SI) of each sample. Acyclovir (ACV, Sigma-Aldrich) was used as a positive control for HSV-1 (KOS strain) and as a negative control for HSV-1 (29-R strain) replication.

[2] = system: HSV-1 (KOS strain); experiment: Viral plaque number reduction assay, HSV-1 KOS strain; type: cell-based, Herpes Simplex Virus type 1; settings: for IC50: read-out: IC50 (KOS Strain)
Description: as §1

[3] = in vitro; type: cell-based; settings: African green monkey (Vero) and human (A549), Vero cells (CC50) and A549 cells (IC50); CC50 Vero / IC50 A549; read-out: SI (selective index = CC50/IC50)
Description: (§2) Non-small cells of human lung cancer cells (A549; ATCC: CCL 195) and African Green monkey kidney fibroblasts (Vero; ATCC: CCL81) were grown in Eagle’s minimum essential medium (MEM; Cultilab, Campinas, Brazil) supplemented with 1% glutamine (Gibco, Carlsbad, CA, USA) and 10% fetal bovine serum (FBS; Gibco, Carlsbad, CA, USA), and maintained at 37 °C and 5% CO2 in a humidified atmosphere. The antiproliferative screening was performed by sulforhodamine B assay (SRB). In summary, A549 cells were seeded into 96-well plates (2.5 × 10^4 cells per well) and exposed to different concentrations of compounds 1–6 for 48 h. Paclitaxel (PAC, Sigma-Aldrich, St. Louis, MO, USA) was used as a positive control. After incubation, 10% trichloroacetic acid (TCA) was added to each well to fix the cells, and then the cells were washed and stained with SRB. […] The ratio between CC50 and IC50 values was calculated to obtain the selectivity index (SI) of each sample.

[4] = system: non-small cells of human lung cancer (A549); experiment: in vitro; type: cell-based; settings: 48 h of treatment, sulforhodamine B assay, mean of three independent experiments, read-out: IC50 A549 Cell Line (Confidence Interval 95%)
Description: as §2

[5] = in vitro; type: cell-based; settings: African green monkey
Description: as §2, §1

[6] = system: Vero cell line; experiment: in vitro; type: cell-based; settings: African green monkey, 48 h
Description: as §2, §1

[7] = Human alphaherpesvirus 1, 48 h, acyclovir-resistant strain, read-out: % HSV-1 Inhibition ± SD, 29R Strain
[8] = Human alphaherpesvirus 1, 48 h, tested concentration 100 µg/mL, 48 h, post-infection treatment, read-out: % HSV-1 Inhibition ± SD, KOS Strain

| SMILES | inhibition at 100 µg/mL [1, 7] [%] | inhibition at 100 µg/mL [2, 8] [%] | selectivity ratio at 48 h [3] | IC50 [4] [µM] | IC50 ([4]; Homo sapiens, A549, 48 h) [µM] | CC50 at 48 h [5] [µM] | IC50 ([1]; Human alphaherpesvirus 1, 48 h, concentration ± SD that inhibited 50% of viral replication, unit inferred) [µM] | inhibition at 100 µg/mL ([2]; Human alphaherpesvirus 1, 48 h, read-out: % HSV-1 Inhibition ± SD, KOS Strain, tested concentration 100 µg/mL, 48 h, post-infection treatment) [%] | IC50 ([2]; Human alphaherpesvirus 1, 48 h) [µM] | % HSV-1 Inhibition ± SD, KOS Strain ([2]; tested concentration 100 µg/mL, 48 h, post-infection treatment) [%] | CC50 [6] [µM] | inhibition at 50 µg/mL ([1]; Human alphaherpesvirus 1, 48 h, tested concentration 50 µg/mL, acyclovir-resistant strain, read-out: % HSV-1 Inhibition ± SD, 29R Strain) [%] | inhibition at 50 µg/mL ([2]; Human alphaherpesvirus 1, 48 h, tested concentration 50 µg/mL, 48 h, post-infection treatment, read-out: % HSV-1 Inhibition ± SD, KOS Strain) [%] | % HSV-1 Inhibition ± SD, KOS Strain ([2]; tested concentration 50 µg/mL, 48 h, post-infection treatment) [%] | inhibition at 25 µg/mL ([1]; Human alphaherpesvirus 1, 48 h, tested concentration 25 µg/mL, acyclovir-resistant strain, read-out: % HSV-1 Inhibition ± SD, 29R Strain) [%] | inhibition at 25 µg/mL ([2]; Human alphaherpesvirus 1, 48 h, tested concentration 25 µg/mL, 48 h, post-infection treatment, read-out: % HSV-1 Inhibition ± SD, KOS Strain) [%] |
| --- | --- | --- | --- | --- | --- | --- | --- | --- | --- | --- | --- | --- | --- | --- | --- | --- |
| C[C@H]1C[C@@H](O)[C@]23C(=CCC[C@@H]2[C@@]1(C)CCc1ccoc1)CO[C@H]3O [Compound 1, raspailol] | 0 | 34.6 ± 7.36 | 6.14 | 24.1 | < 25 | 148 |  |  |  |  |  |  |  |  |  |  |
| C=C1C(C)=CCC[C@@H]1[C@@](C)(CCc1ccoc1)[C@@H](C)CC(=O)OC [Compound 2, raspadiene] | 74 |  | > 2.49 |  | 100 | > 250 | 74.9 ± 7.3 | 83 | 81.4 ± 9.82 | 83.41 ± 16.12 | > 250 |  |  |  |  |  |
| CC1=CCC[C@H]2C1(C(=O)O)[C@H](O)C[C@H](C)[C@]2(C)CCc1ccoc1 (stereo partly drawn) [Compound 3, kerlinic acid] | 32 ± 6.12 | 24.4 ± 4.04 | 2.74 |  | 66.2 | 182 |  |  |  |  |  |  |  |  |  |  |
| COC(=O)[C@@]12C(C)=CCC[C@@H]1[C@@](C)(CCc1ccoc1)[C@@H](C)C[C@H]2O [Compound 4, kerlinic acid methyl ester] |  |  | 4.77 | 20.6 | < 25 | 98.4 |  |  | 52.4 ± 4.78 |  |  | 14.4 ± 5.46 | 50 | 50.23 ± 8.24 |  |  |
| CC1=CCC[C@@H]2[C@@](C)(CCc3ccoc3)[C@@H](C)CC[C@]12C [Compound 5, annonene] | 30.9 ± 9.07 | 15.2 ± 4.65 | > 1.74 |  | 144 | > 250 |  |  |  |  |  |  |  |  |  |  |
| CC1=CCC[C@@H]2[C@@](C)(CCc3ccoc3)[C@@H](C)C[C@@H](O)[C@]12C [Compound 6, 6-hydroxyannonene] |  |  | 1.66 | 24.5 | < 25 | 40.8 |  |  |  |  |  |  |  |  | 0 | 0 |
